Experimental data reported in patent publication US20230285261A1, “FRAGRANCE COMPOSITION COMPRISING A FRAGRANCE COMPONET AND A NON-ODOROUS FRAGRANCE MODULATOR” (Coty Inc., priority 2020, published 2023).

From the text: Classical perfume contain a high % of ethanol to solubilize perfume raw materials.

C[C@@H]1CC[C@H]2C(C)(C)[C@H]3C[C@@]12CC[C@@]3(C)O [Cerdol Crystals, Cedrol Crystals]
Max Solubility in 83% Ethanol/17% Glucam solution: 0.431 g
Max Solubility in 88% Ethanol/12% Water solution: 0.273 g
solubility increase, glucam-containing vs classical ethanol solution: 57.8%
